From patent US10570097B2, “Antimicrobial imidazolium compounds” (AGENCY FOR SCIENCE, TECHNOLOGY AND RESEARCH, priority 2014, dated 2020)
Where two headings read alike, the source gives them in different places.

How the values were obtained:
E. coli [1] = test: Minimum inhibitory concentration by microdilution assay; assay type: cell-based, Escherichia coli (ATCC 25922); details: for MIC E. coli: 37° C., 24 h
Protocol: (§1) Staphylococcus aureus (ATCC 6538, gram-positive), Escherichia coli (ATCC 25922, gram-negative), Pseudomonas aeruginosa (gram-negative), and Candida albicans (ATCC 10231, yeast) were used as representative microorganisms to challenge the antimicrobial functions of the imidazolium salts. All bacteria and yeast were stored frozen at −80° C., and were grown overnight at 37° C. in Tryptic Soy broth (TSB) prior to experiments. Yeast was grown overnight at 22° C. in Yeast Mold (YM) broth. Subsamples of these cultures were grown for 3 h further and diluted to give an optical density value of 0.07 at 600 nm, corresponding to 3×10^8 CFU mL^−1 (MacFarland's Standard).
(§2) The oligomer compounds were dissolved in PBS at a concentration of 1 mg mL^1 and the minimal inhibitory concentrations (MICs) were determined by microdilution assay. Typically, a 100 μL microbial solutions (containing 3×10^8 cells mL^−1) were added to 100 μL of PBS containing the test imidazolium salts (normally ranging from […] in serial two-fold dilutions) in each well of the 96-well microtiter plate. The plates were incubated at 37° C. for 24 h with shaking at 300 rpm, with monitoring at the 2, 4, 6, 8, and 24 h time points. […] Broth and PBS solution containing microbial cells alone were used as negative controls, and experiments were run in triplicates.

[2] = Gelling properties in solvents (tube inversion test); assay type: physicochemical
Protocol: Gels were prepared by weighing the imidazolium oligomer compounds directly into 4 mL glass vials and subsequently adding a known weight or volume of the solvent. The vials containing both the imidazolium and the solvent were either vortexed or sonicated to ensure that the imidazolium was dissolved and dispersed thoroughly before being placed in a 4° C. fridge overnight. The tube inversion test method was used to examine gel formation in different solvents.

[3] = system: rat red blood cells (RBCs); test: Hemolysis; assay type: cell-based
Protocol: Before these materials can be used in systemic applications, selectivity of these materials for microbial cells over mammalian cells should also be considered. Such selectivity is often determined by observation of hemolysis. Hemolysis was performed in the following manner, fresh rat red blood cells (RBCs) were diluted with PBS buffer to give an RBC stock suspension (4 vol % blood cells). A 100 μL aliquot of RBC stock was added to a 96-well plate containing […] oligomer compound stock solutions of various concentrations (serial 2-fold dilution in PBS). After 1 h incubation at 37° C., The contents of each well was pipetted into a microcentrifuge tube and then centrifuged at 4000 rpm for 5 min. Hemolytic activity was determined as a function of hemoglobin release by measuring OD576 of […] of the supernatant. A control solution that contained only PBS was used as a reference for 0% hemolysis. 100% hemolysis was measured by adding 0.5% Triton-X to the RBCs. [formula] The selectivity of the materials was also further assessed, by calculating the selectivity indices (SI), a measure and a comparison of safety and efficacies of each oligomer compound. […] Herein, the more stringent control of HC10 value was chosen over the HC50 value often reported in literature.

P. aeruginosa = test: Minimum inhibitory concentration by microdilution assay; assay type: cell-based, Pseudomonas aeruginosa; details: 37° C., 24 h
Protocol: as §1, §2

E. coli [4] = test: Time kill kinetics; assay type: cell-based, Escherichia coli; details: for fast killing in words: E. coli time kill; for % kill / Log reduction: E. coli, 4MIC, two minutes
Protocol: Time kill studies of the soligome compounds against E. coli were also studied. The experimental setup for time kill kinetics was similar to the set up for MBC determination. The microbes were treated with oligomer compounds at 4MIC concentration, and samples were taken out of each well at 2 minutes. 500 μl of cell suspension was removed, rescued by a series of 10-fold dilutions with growth medium, and kept on ice until plating. For plating, 50 μl to 200 μl of the diluted samples was spread on growth medium agar plates and colonies were counted after overnight incubation at 37° C.

[5] = Critical micellar concentration (pyrene fluorescent probe); assay type: physicochemical; details: for CMC in PBS: PBS buffer solution; for CMC in DI H2O: deionised water
Protocol: The CMC values of the oligomer compounds were determined in both deionised (DI) water and PBS, using a LS50B luminescence spectrometer (Perkin Elmer, United States) and employing pyrene as a fluorescent probe. A known weight of the oligomer compound was dissolved in either 2 mL of DI water or PBS in a 4 mL glass vial and serial dilutions were effected. 10 μL of pyrene stock solution in acetone (6.16×10^-5 M) was added to each vial containing 1 mL of a known concentration of the oligomer compound, and the acetone was then evaporated at room temperature. The solution was allowed to equilibrate overnight and the final concentration of pyrene in each vial was 6.16×10^-7 M. The excitation spectra of the solutions were scanned from 300 to 360 nm with an emission wavelength of 395 nm, and both the excitation and emission bandwidths were set at 2.5 nm. The intensity ratios ([…]/[…]) were plotted against polymer concentration. The CMC value was given by the intersection of the tangent to the curve at the inflection and the tangent of the points at low polymer concentrations.

C. Albicans = test: Minimum inhibitory concentration by microdilution assay; assay type: cell-based, Candida albicans (ATCC 10231); details: 24 h
Protocol: as §1, §2

[6] = system: 4 microbes (S. aureus, E. coli, P. aeruginosa, C. Albicans); test: MIC over the 4 microbes tested (geometric mean); assay type: cell-based; details: geometric mean of the MICs of the 4 microbes
Protocol: Staphylococcus aureus (ATCC 6538, gram-positive), Escherichia coli (ATCC 25922, gram-negative), Pseudomonas aeruginosa (gram-negative), and Candida albicans (ATCC 10231, yeast) were used as representative microorganisms to challenge the antimicrobial functions of the imidazolium salts. All bacteria and yeast were stored frozen at −80° C., and were grown overnight at 37° C. in Tryptic Soy broth (TSB) prior to experiments. Yeast was grown overnight at 22° C. in Yeast Mold (YM) broth. […] Typically, a 100 μL microbial solutions (containing 3×10^8 cells mL^−1) were added to 100 μL of PBS containing the test imidazolium salts (normally ranging from […] in serial two-fold dilutions) in each well of the 96-well microtiter plate. The plates were incubated at 37° C. for 24 h with shaking at 300 rpm, with monitoring at the 2, 4, 6, 8, and 24 h time points. […] Broth and PBS solution containing microbial cells alone were used as negative controls, and experiments were run in triplicates. The selectivity of the materials was also further assessed, by calculating the selectivity indices (SI), a measure and a comparison of safety and efficacies of each oligomer compound. […] Herein, the more stringent control of HC10 value was chosen over the HC50 value often reported in literature.

S. aureus = test: Minimum inhibitory concentration by microdilution assay; assay type: cell-based, Staphylococcus aureus (ATCC 6538); details: 37° C., 24 h
Protocol: as §1, §2

[7] = lowest concentration that induces 10% or more hemolysis, rat RBCs, 1 h, 37° C., maximum tested 100,000 ppm

Row | Compound | State in solvent ([2]; Acetone) | State in solvent ([2]; Acetonitrile) | Concentration to form gel ([2]; EtOH) | State in solvent ([2]; EtOH) | State in solvent ([2]; Ethylene glycol) | State in solvent ([2]; Glycerol) | Concentration to form gel ([2]; nBuOH) | State in solvent ([2]; nBuOH) | Concentration to form gel ([2]; nPrOH) | State in solvent ([2]; nPrOH) | MIC P.A. (P. aeruginosa) [µg/mL] | fast killing in words (E. coli [4]) | % kill (E. coli [4]) [%] | MIC E. coli (E. coli [1]) [µg/mL] | MIC C.A. (C. Albicans) [µg/mL] | MIC GM [6] [µg/mL] | MIC S.A. (S. aureus) [µg/mL] | HC10 [3, 7] [ppm] | CMC in PBS [5] [ppm] | CMC in DI H2O [5] [ppm] | also measured
1 | CCCCCCCC[n+]1ccn(C)c1.[Br-] [1-Methyl-3-octyl imidazolium bromide, reference compound] |  |  |  |  |  |  |  |  |  |  |  |  |  |  |  |  |  |  |  |  | MIC (E. coli [1]; Escherichia coli, Example 8, microbe not named, E. coli context): 1000 µg/mL; MIC relative to Compound 2 (E. coli [1]; ratio of MIC to that of Compound 2): more than 100 times
2 | CCCCCCCCCC[n+]1ccn(Cc2ccc(C[n+]3ccn(Cc4ccc(C[n+]5ccn(Cc6ccccc6Cn6cc[n+](Cc7ccc(Cn8cc[n+](Cc9ccc(Cn%10cc[n+](CCCCCCCCCC)c%10)cc9)c8)cc7)c6)c5)cc4)c3)cc2)c1.[Br-].[Br-].[Cl-].[Cl-].[Cl-].[Cl-] [Compound 3] | Insoluble | Insoluble | (12 wt %) | Gel | Solution | Solution | (7.9 wt %) | Gel | (7.9 wt %) | Gel | 8 | instantaneous elimination | >99.9 | 8 | 31 | 9.44 | 4 |  |  |  | HC10 [3]: 500 ppm; Log reduction (E. coli [4]): 3.49; sharp point of inflection indicating the critical micellar concentrations ([5]; FIG. 4, deionized water): not observed
3 | CCCCCCCCCCCC[n+]1ccn(Cc2ccc(C[n+]3ccn(Cc4ccc(C[n+]5ccn(Cc6ccccc6Cn6cc[n+](Cc7ccc(Cn8cc[n+](Cc9ccc(Cn%10cc[n+](CCCCCCCCCCCC)c%10)cc9)c8)cc7)c6)c5)cc4)c3)cc2)c1.[Br-].[Br-].[Cl-].[Cl-].[Cl-].[Cl-] [Compound 4] | Insoluble | Insoluble | (9.0 wt %) | Gel | Solution | Solution | (5.8 wt %) | Gel | (7.2 wt %) | Gel | 16 | instantaneous elimination | >99.9 | 8 | 31 | 11.22 | 4 | 31 | 10.9 | 938.5 | Gel formation ([2]; binary mixtures of water/ethanol and glycerol/ethanol): did not form a gel; Log reduction (E. coli [4]): 3.69
4 | CCCCCCCCCCCCCC[n+]1ccn(Cc2ccc(C[n+]3ccn(Cc4ccc(C[n+]5ccn(Cc6ccccc6Cn6cc[n+](Cc7ccc(Cn8cc[n+](Cc9ccc(Cn%10cc[n+](CCCCCCCCCCCCCC)c%10)cc9)c8)cc7)c6)c5)cc4)c3)cc2)c1.[Br-].[Br-].[Cl-].[Cl-].[Cl-].[Cl-] [Compound 5] | Insoluble | Insoluble | (12.9 wt %) | Gel | Solution | Solution | (5.3 wt %) | Gel | (5.3 wt %) | Gel | 16 |  |  | 16 | 31 | 13.35 | 4 | 15 | 4.9 | 200.3 | 
5 | CCCCCCCCCCCCCCCC[n+]1ccn(Cc2ccc(C[n+]3ccn(Cc4ccc(C[n+]5ccn(Cc6ccccc6Cn6cc[n+](Cc7ccc(Cn8cc[n+](Cc9ccc(Cn%10cc[n+](CCCCCCCCCCCCCCCC)c%10)cc9)c8)cc7)c6)c5)cc4)c3)cc2)c1.[Br-].[Br-].[Cl-].[Cl-].[Cl-].[Cl-] [Compound 6] | Insoluble | Insoluble | (9.6 wt %) | Gel | opaque gels and Gel | opaque gels and Gel | (6.9 wt %) | Gel | (6.9 wt %) | Gel | 16 |  |  | 16 | 62 | 18.88 | 8 | 15 | 1.3 | 38.5 | Concentration to form gel ([2]; Ethylene glycol): (4.7 wt %); Concentration to form gel ([2]; Glycerol): (6.3 wt %)
6 | [Br-].[Br-].[Cl-].[Cl-].[Cl-].[Cl-].c1ccc(Cn2cc[n+](Cc3ccc(Cn4cc[n+](Cc5ccc(Cn6cc[n+](CC7CCCCC7)c6)cc5)c4)cc3)c2)c(Cn2cc[n+](Cc3ccc(Cn4cc[n+](Cc5ccc(Cn6cc[n+](CC7CCCCC7)c6)cc5)c4)cc3)c2)c1 [Compound 7] |  |  |  |  |  |  |  |  |  |  | 16 |  |  | 16 | 31 | 15.87 | 8 | 12500 |  |  | Gel formation ([2]; any of the solvents): not able to form gels
